Source: patent US20030119013A1, “Identification of essential genes of Aspergillus fumigatus and methods of use” (priority 2001, published 2003)

Key:
[1] = system: invasive aspergillosis (IA); settings: patients with invasive aspergillosis; cited from earlier work
[2] = system: AfERG11β knockout strain and AfERG11α knockout strain; assay: Azole sensitivity on agar gradient plates, knockout strains; assay type: cell-based, Aspergillus fumigatus
Excerpt: (§1) Aspergillus fumigatus strains were constructed in which either the AfERG11 gene or the AfERG11β gene had been “knocked out.” Each of these strains was compared to the wild-type Aspergillus fumigatus strain CEA 10 with respect to its sensitivity, as analyzed on agar gradient plates, to two representative azole compounds, ketoconazole and itraconazole.

[3] = system: wild-type Aspergillus fumigatus strain CEA 10; assay: Azole sensitivity on agar gradient plates, wild-type strain; assay type: cell-based; settings: versus AfERG11 and AfERG11β knockout strains
Excerpt: as §1

[4] = system: Aspergillus fumigatus transformed cells containing the integrated PglaA promoter (AfHIS3); assay: Titration against 3-aminotriazole of PglaA-AfHIS3 promoter replacement strain; assay type: cell-based
Excerpt: Aspergillus fumigatus is sensitive to the catalase inhibitor 3-aminotriazole (3-AT), which targets the product of the HIS3 gene. The concentration of 3-AT sufficient to inhibit growth of Aspergillus fumigatus is thusly dependent on the amount of HIS3 gene product present in the cells.
For instance, culturing the transformed cells containing the integrated PglaA promoter in a medium supplemented with different carbon sources or ratios of carbon sources allows the amount of AfHIS3 gene product to be increased or decreased relative to endogenous levels to generate cells that are more or less sensitive to 3-AT based on the amount of HIS3 gene product. It is known, for example, that transcription from the PglaA promoter is induced in the presence of maltose, repressed in the presence of xylose and intermediate levels of activity are detected from cells grown on glucose. By adjusting the ratio of maltose to xylose in the culture medium, the amount of transcription may be titrated, at least in a step-wise manner, to adjust levels of transcript in the cell.

[5] = system: bar-coded strains bearing heterozygous mutations in HIS3, TUB1, ALG7, and ERG11; settings: Saccharomyces cerevisiae, mixed population, challenged with respective compound; cited from earlier work

With C[C@@H]1[C@H](O)[C@@H](C)/C=C/C=C/C=C/C=C/C=C/C=C/C=C/[C@H](O[C@@H]2O[C@H](C)[C@@H](O)[C@H](N)[C@@H]2O)C[C@@H]2O[C@](O)(C[C@@H](O)C[C@@H](O)[C@H](O)CC[C@@H](O)C[C@@H](O)CC(=O)O[C@H]1C)C[C@H](O)[C@H]2C(=O)O [AmB, amphotericin B] as the compound, how does the “overall success rate of therapy for IA” value [1] read?
Its value is 34%.

With CC(=O)N1CCN(c2ccc(OCC3COC(Cn4ccnc4)(c4ccc(Cl)cc4Cl)O3)cc2)CC1 (stereo not shown) [ketoconazole] as the compound, how does the “resistance of AfERG11β knockout strain compared with AfERG11α knockout strain” value [2] read?
The value was “more resistant”.

And the “resistance of wild-type strain CEA 10 compared with either knockout strain” value [3]?
Its value is “more resistant”.

With Nc1nc[nH]n1 [3-AT, 3-aminotriazole] as the compound, how does the “sensitivity of Aspergillus fumigatus to 3-aminotriazole” value ([4]; Aspergillus fumigatus, general statement) read?
Its value is “sensitive”.

And the “resistance in the presence of 3-AT” value ([4]; cells grown in the presence of maltose (e.g. 2% maltose), PglaA induced)?
The value was “increased resistance”.

What about the “resistance to 3-AT” value ([4]; cells grown in the presence of xylose (e.g. 1% xylose), PglaA repressed) of the same compound?
Its value is “decreased resistance”.

And the “sensitivity of heterozygous drug-target strain compared with other heterozygote bar-coded strains” value [5]?
The value was “significantly greater sensitivity”.

With tunicamycin as the compound, how does the “sensitivity of heterozygous drug-target strain compared with other heterozygote bar-coded strains” value [5] read?
The value was “significantly greater sensitivity”.

Which “sensitivity of heterozygous drug-target strain compared with other heterozygote bar-coded strains” value [5] does the source give for CCCCNC(=O)n1c(NC(=O)OC)nc2ccccc21 [benomyl] here?
Its value is “significantly greater sensitivity”.

For OC(Cn1cncn1)(Cn1cncn1)c1ccc(F)cc1F [fluconazole], which “sensitivity of heterozygous drug-target strain compared with other heterozygote bar-coded strains” value [5] is on record?
Its value is “significantly greater sensitivity”.
